Assay results as given in PubChem BioAssay (NCI).
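Dose response: 5 concentrations. Exposure: 48 h. Format: 96-well plates. Endpoint: linear interpolation; highest concentration if not reached. Here, GI50 denotes the concentration required for 50% inhibition of growth. TGI denotes the concentration required for complete inhibition of growth.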

Key:
Experiment in all cases: NCI-60 cell line screen, 48 h
SK-OV-3 ovarian = tested on: SK-OV-3 ovarian
NCI-H522 lung = tested on: NCI-H522 lung
LOX IMVI melanoma = tested on: LOX IMVI melanoma
SK-MEL-5 melanoma = tested on: SK-MEL-5 melanoma
SK-MEL-2 melanoma = tested on: SK-MEL-2 melanoma
NCI-H226 lung = tested on: NCI-H226 lung
NCI-H23 lung = tested on: NCI-H23 lung
HCC-2998 colon = tested on: HCC-2998 colon
UACC-62 melanoma = tested on: UACC-62 melanoma
HCT-116 colon = tested on: HCT-116 colon
T-47D breast = tested on: T-47D breast
786-0 renal = tested on: 786-0 renal
SK-MEL-28 melanoma = tested on: SK-MEL-28 melanoma
OVCAR-3 ovarian = tested on: OVCAR-3 ovarian
HT29 colon = tested on: HT29 colon
PC-3 prostate = tested on: PC-3 prostate
MCF7 breast = tested on: MCF7 breast
HCT-15 colon = tested on: HCT-15 colon
OVCAR-8 ovarian = tested on: OVCAR-8 ovarian
U251 CNS = tested on: U251 CNS
MALME-3M melanoma = tested on: MALME-3M melanoma
KM12 colon = tested on: KM12 colon
SW-620 colon = tested on: SW-620 colon
HS 578T breast = tested on: HS 578T breast
SF-295 CNS = tested on: SF-295 CNS
IGROV1 ovarian = tested on: IGROV1 ovarian
NCI-H460 lung = tested on: NCI-H460 lung
SF-539 CNS = tested on: SF-539 CNS

Q: What does the source list for `CN1C[C@@H](c2ccc(Cl)cc2)[C@]2(NC(=S)N(c3ccc(F)c(Cl)c3)C2=O)[C@@]12C(=O)NC1C=CC(Cl)=C[C@H]12` (stereo partly specified)?
A: GI50 (SK-OV-3 ovarian): 3.09 µM; TGI (SK-OV-3 ovarian): 10.4 µM; GI50 (NCI-H522 lung): 2.84 µM; TGI (NCI-H522 lung): 10.9 µM; GI50 (LOX IMVI melanoma): 1.7 µM; TGI (LOX IMVI melanoma): 3.33 µM; GI50 (SK-MEL-5 melanoma): 1.97 µM; TGI (SK-MEL-5 melanoma): 4.21 µM; GI50 (SK-MEL-2 melanoma): 3.08 µM; TGI (SK-MEL-2 melanoma): 10.3 µM; GI50 (NCI-H226 lung): 1.82 µM; TGI (NCI-H226 lung): 4.72 µM; GI50 (NCI-H23 lung): 2.66 µM; TGI (NCI-H23 lung): 10.1 µM; GI50 (HCC-2998 colon): 3.85 µM; TGI (HCC-2998 colon): 13.8 µM; GI50 (UACC-62 melanoma): 3.11 µM; TGI (UACC-62 melanoma): 12.3 µM; GI50 (HCT-116 colon): 3.12 µM; TGI (HCT-116 colon): 10.2 µM; GI50 (T-47D breast): 2.85 µM; TGI (T-47D breast): 13.6 µM; GI50 (786-0 renal): 2.08 µM; TGI (786-0 renal): 4.82 µM; GI50 (SK-MEL-28 melanoma): 3.61 µM; TGI (SK-MEL-28 melanoma): 12.9 µM; GI50 (OVCAR-3 ovarian): 2.12 µM; TGI (OVCAR-3 ovarian): 4.75 µM; GI50 (HT29 colon): 2.1 µM; TGI (HT29 colon): 4.24 µM; GI50 (PC-3 prostate): 2.25 µM; TGI (PC-3 prostate): 6.42 µM; GI50 (MCF7 breast): 2.82 µM; TGI (MCF7 breast): 12 µM; GI50 (HCT-15 colon): 3 µM; TGI (HCT-15 colon): 10.3 µM; GI50 (OVCAR-8 ovarian): 2.78 µM; TGI (OVCAR-8 ovarian): 8.6 µM; GI50 (U251 CNS): 2.01 µM; TGI (U251 CNS): 4.71 µM; GI50 (MALME-3M melanoma): 2.81 µM; TGI (MALME-3M melanoma): 9.09 µM; GI50 (KM12 colon): 2 µM; TGI (KM12 colon): 4.92 µM; GI50 (SW-620 colon): 3.19 µM; TGI (SW-620 colon): 13.1 µM; GI50 (HS 578T breast): 2.96 µM; TGI (HS 578T breast): 16.7 µM; GI50 (SF-295 CNS): 1.89 µM; TGI (SF-295 CNS): 4.46 µM; GI50 (IGROV1 ovarian): 3.12 µM; TGI (IGROV1 ovarian): 14.6 µM; GI50 (NCI-H460 lung): 2.44 µM; TGI (NCI-H460 lung): 6.09 µM; GI50 (SF-539 CNS): 3.29 µM; TGI (SF-539 CNS): 12.2 µM
